From patent publication US6514967B1 (priority 1997, dated 2003)

Key:
astrocytes = test: Recapture of glutamate by cultures of astrocytes, radicals generated by xanthine/xanthine oxidase (X/XO); assay type: cell-based, rats
Description: B) Procedure with cultures of astrocytes and generation of radicals by the xanthine/xanthine oxidase (X/XO) pair
400 μl of D-lysine at 25 μg/ml (9 ml of D-lysine at 100 μg per ml of borate buffer (0.1M pH 8.4)+27 ml of water) is placed in each well of 24-well culture plates. The wells are left in the stove (5% CO2, 37° C.) over night. Each well is rinsed with 2 times 750 μl of Hanks before receiving the culture medium. 3 lateral demi cortices are taken from rats aged 1 to 2 days. (The hippocampus, the striatum and the meninges are removed). The demi cortices are placed in 2 ml of trypsin-EDTA then put in the stove for 30 min. The action of the trypsin is stopped with 10% of decomplemented foetal calf serum (200 μl). The serum and the trypsin are removed then the cells are dissociated with a pipette in 10 ml of medium (MEM 225 ml+FCS-D 25 ml+glucose 20% 7.5 ml) (MEM=minimum essential medium; FCS-D=decomplemented foetal calf serum). The culture medium is made up to 30 ml, stirred and placed at 400 μl per well. The medium is changed twice weekly for 18 days. The last replacement is effected 4 days prior to the treatment, with a medium without decomplemented foetal calf serum. (MEM 31.5 ml+glucose 20% 1.05 ml).
Treatment takes place on the 18th or 19th day.
Each well is washed with 750 μl of buffer (NaCl 124 mM, KCl 4.6 mM, CaCl2 1.2 mM, MgCl2 1.3 mM, KH2PO4 0.416 mM, NaHCO3 26.75 mM, glucose 10 mM; pH 7.4) for 10 min. The cells are incubated in the presence of xanthine (500 μM) and of the test product (from 0 to 1 mM). After 10 min, xanthine oxidase is added (50 mU/ml) and it is again left to incubate for 10 min. Release of radicals is stopped by washing 3 times with catalase (3000 U/ml). The glutamate is then recaptured in a solution of radioactive glutamate (^3H) at 40 μM (isotopic dilution 1/20000). Recapture is stopped by washing 3 times with the cold buffer. The cells are detached with soda 0.2N and the radioactivity is measured.
Firstly we checked that the inhibition of recapture observed in the presence of X/XO is indeed due to a radical process. For this we replaced the test products with two enzymes: SOD (SuperOxide Dismutase) and catalase (FIG. 1). […] The Fenton reaction converting hydrogen peroxide to OH• is thus short-circuited. […] However, as there seems to be sufficient reducing agent in the medium to promote the formation of H2O2 starting from O2^•^−, it appears likely that a substantial proportion of H2O2 gives OH• (a highly reactive radical).
FIGS. 3 to 8 are the mean of at least 4 independent tests in which the protective power of IC180, IC023, IC241, IC2-16, IC178, IC140, IC209, IC237, IC146, IC193, IC194, IC242, IC207, IC2-19, IC219, IC2-21, and IC249, as a function of the dose, was tested against a fixed concentration of radicals, and therefore of X/XO. In the case of IC180, the increase in recapture appears to be linear (up to 100% is found in some tests). […] Since IC023 alone only becomes “toxic” starting from 1 mM, the variation observed starting from 0.6 mM might reflect the existence of metabolites that are poorly tolerated by the cells. The derivative morpholine IC180 is more interesting.

xanthine oxidase = xanthine oxidase (Homo sapiens, UniProt P47989); test: Action of the derivatives on xanthine oxidase; assay type: biochemical
Description: Action of the derivatives on xanthine oxidase:
(Free Radical Biology & Medicine, Vol 20, No 1, pp.35-43, 1996)
[…] of xanthine 20 mM in soda 0.1N and […] of the test product in phosphate buffer at pH 7.4 were placed in a final volume of 2 ml. Reaction is started by adding […] of solution of xanthine oxidase at 0.56 U/ml. Formation of […] is monitored by UV spectroscopy at 290 nm. Allopurinol is a reference inhibitor.

Sequence of xanthine oxidase (P47989 whole entry, species assumed): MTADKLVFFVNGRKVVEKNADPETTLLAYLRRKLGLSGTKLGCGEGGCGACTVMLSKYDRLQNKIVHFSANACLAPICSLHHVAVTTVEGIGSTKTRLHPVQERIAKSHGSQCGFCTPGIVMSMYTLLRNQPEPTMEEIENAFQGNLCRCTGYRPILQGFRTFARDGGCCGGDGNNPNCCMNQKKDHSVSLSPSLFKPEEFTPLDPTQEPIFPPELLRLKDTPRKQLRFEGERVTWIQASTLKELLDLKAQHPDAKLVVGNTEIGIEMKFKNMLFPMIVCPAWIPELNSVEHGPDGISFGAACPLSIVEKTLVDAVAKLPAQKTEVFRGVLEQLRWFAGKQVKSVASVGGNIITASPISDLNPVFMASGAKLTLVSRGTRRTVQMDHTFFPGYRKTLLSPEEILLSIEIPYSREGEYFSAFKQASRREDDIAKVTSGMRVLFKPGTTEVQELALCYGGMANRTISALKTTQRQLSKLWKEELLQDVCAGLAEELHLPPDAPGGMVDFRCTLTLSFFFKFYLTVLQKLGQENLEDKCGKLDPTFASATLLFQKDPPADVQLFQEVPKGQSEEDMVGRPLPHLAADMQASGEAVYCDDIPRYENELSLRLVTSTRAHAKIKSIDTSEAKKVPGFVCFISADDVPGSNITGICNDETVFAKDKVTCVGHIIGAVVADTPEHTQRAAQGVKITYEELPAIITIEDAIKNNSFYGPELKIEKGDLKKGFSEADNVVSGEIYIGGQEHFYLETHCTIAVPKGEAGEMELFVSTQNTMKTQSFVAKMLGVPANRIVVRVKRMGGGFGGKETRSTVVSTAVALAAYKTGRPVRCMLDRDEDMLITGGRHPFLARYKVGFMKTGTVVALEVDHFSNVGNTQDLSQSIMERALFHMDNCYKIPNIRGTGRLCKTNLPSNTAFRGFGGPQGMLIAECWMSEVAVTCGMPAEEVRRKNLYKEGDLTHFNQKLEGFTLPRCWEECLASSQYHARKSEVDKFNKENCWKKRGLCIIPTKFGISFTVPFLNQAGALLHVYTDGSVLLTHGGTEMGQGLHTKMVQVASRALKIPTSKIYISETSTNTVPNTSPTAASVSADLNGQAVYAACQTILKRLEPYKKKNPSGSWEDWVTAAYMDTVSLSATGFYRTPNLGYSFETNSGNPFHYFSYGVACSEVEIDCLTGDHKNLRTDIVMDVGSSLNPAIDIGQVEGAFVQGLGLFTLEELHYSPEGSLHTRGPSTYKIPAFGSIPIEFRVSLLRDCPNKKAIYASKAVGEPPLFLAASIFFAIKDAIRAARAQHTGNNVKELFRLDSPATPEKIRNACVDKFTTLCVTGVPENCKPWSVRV

c1cc2c(s1)CCCC2N1CCOCC1 (stereo not shown) [IC180, morpholine-4-tetrahydro-4,5,6,7-benzothiophene]
increase in recapture of glutamate, highest found (astrocytes; fixed concentration of X/XO, dose-dependent, found in some tests): up to 100%
effect of the product alone on recapture (astrocytes; without the presence of X/XO): no effect on recapture
inhibition at 100 µM (xanthine oxidase; read-out: % inhibition 100 μM): 0%
inhibition at 500 µM (xanthine oxidase; read-out: % inhibition 500 μM): 2%
